Assays:
[1] = Weight changes and weight gaining rate in ovari-ectomized rats; assay type: in vivo, rat
Experimental: As the experimental animals, white female SD (Sprague-Dawley) rats (230˜250 g) were purchased from Hallym Research Institute of Experimental animals (Kyunggido, Korea). The rats were raised at 23±1° C., under 40˜60% humidity and 12-hour light and shade cycle. Feed (solid feed, Hallym Research Institute of Experimental animals, Kyunggido, Korea) and water were given freely, but just water was supplied on the day before drawing blood. For removal of ovary, a 12-week old white rat was anesthetized by ether. The rat got a shave on its back by a razor. Oophorectomy was performed after sterilizing the operating area with 70% ethanol. Particularly, skin was cut 2˜3 cm along the spinal column of the abdominal lower-flank region of one side, and then, muscle and peritoneum were incised 1.5 cm to exposure ovary. After ligating oviduct by a silk, the ovary was cut off and peritoneum, muscle and skin were sutured by a silk. The other side ovary was ectomized by the same procedure. Sham operation was performed for a control group, which opened peritoneum but sutured without taking ovary out. A period of recovery was 1 week. Test animals were classified into three groups; a normal group (non-ovari-ectomized group), a control group 1 (sham-operated group) and an ovari-ectomized group. The ovari-ectomized group was sub-divided into a control group 2, which was not administered with a sample, a 17-beta estradiol treating group (E group), an extract of Sophorae Fructus of Example 1 administering group (R-G group), an enzyme extract of Sophorae Fructus of Example 2 administering group (R-A group), a food composition comprising the extract of Sophorae Fructus of Example 3 administering group (R-P group) and a soybean ex-powder administering group (S-S group) by 10 animals each (Table 1). […] Weights of each group of the above Example <5-2> were measured with an electronic scale, from which weight gaining rate per day was calculated by the below formula. […]

IGF-1 = IGF-1 secretion in osteoblasts, ELISA; assay type: cell-based, human; conditions: MG-63 cells, 10^-4%
Experimental: (§1) In order to investigate whether the extract of Sophorae Fructus of the present invention could stimulate the secretion of IGF-1 and TGF-beta in osteoblasts, each sample was treated to MG-63 human osteoblast-like cells by the same method as used in Example <4-4>, and then, ELISA and RT-PCR were performed to measure the secretion and the expression of IGF-1 and TGF-beta. The expression levels of IGF-1 and TGF-beta were represented by a comparative rate (%) to that of a control. ELISA was performed by using ELISA kit (Quantikine, R&D system) according to the provided protocol to investigate the secretion of IGF-1 and TGF-beta. Then, optical density was measured by the same method as used in the Example <4-4>. RT-PCR was also performed by the same method as used in the above Example <4-4>. Each primer used for the RT-PCR was presented below.

[2] = Calcium concentration in blood plasma of ovari-ectomized rats, OCPC method; assay type: in vivo, rat
Experimental: For removal of ovary, a 12-week old white rat was anesthetized by ether. The rat got a shave on its back by a razor. Oophorectomy was performed after sterilizing the operating area with 70% ethanol. Particularly, skin was cut 2˜3 cm along the spinal column of the abdominal lower-flank region of one side, and then, muscle and peritoneum were incised 1.5 cm to exposure ovary. After ligating oviduct by a silk, the ovary was cut off and peritoneum, muscle and skin were sutured by a silk. The other side ovary was ectomized by the same procedure. Sham operation was performed for a control group, which opened peritoneum but sutured without taking ovary out. A period of recovery was 1 week. Test animals were classified into three groups; a normal group (non-ovari-ectomized group), a control group 1 (sham-operated group) and an ovari-ectomized group. […] Therefore, measuring optical density of the magenta color leads to the quantification of calcium in a reagent. […]

[3] = tested on: MG-63 human osteoblast-like cells; test: Osteoblast proliferation, MTT method; assay type: cell-based; conditions: MG-63 cells, 72 hours
Experimental: MG-63 human osteoblast-like cells were distributed from Korean Cell Line Bank of Seoul National University College of Medicine, Seoul, Korea, which were sub-cultured for fuirther use. The frozen MG-63 human osteoblast-like cells were melted in a 37° C. water bath for 1 minute, followed by centrifugation with 1300 rpm for 5 minutes to eliminate supernatant. The obtained pellet was re-suspended in DMEM supplemented with 10% FBS, which was, then, distributed in a […] culture flask for further culture. The duration of culture was 2 weeks for cell stability. After confirming under a microscope that a monolayer was stably formed, the cells were used for the experiments. In order to investigate the osteoblast proliferation after the treatment of an extract of Sophorae Fructus, MG-63 human osteoblast-like cells of the above Example <4-1> were treated with the Sophorae Fructus extract powder of Example 1 (R-G), the Sophorae Fructus enzyme extract powder of Example 2 (R-A), and the food composition comprising an extract of Sophorae Fructus of Example 3 (R-P), which were cultured for 3 days. The effects of the above extracts on cell proliferation were measured by MTT method. […] After complete mixing, color changes were checked and OD570 was measured using an ELISA plate reader within an hour.

Dpd (deoxypyridinoline) = test: Dpd concentration in blood plasma of ovari-ectomized rats; assay type: in vivo, rat
Experimental: For removal of ovary, a 12-week old white rat was anesthetized by ether. The rat got a shave on its back by a razor. Oophorectomy was performed after sterilizing the operating area with 70% ethanol. Particularly, skin was cut 2˜3 cm along the spinal column of the abdominal lower-flank region of one side, and then, muscle and peritoneum were incised 1.5 cm to exposure ovary. After ligating oviduct by a silk, the ovary was cut off and peritoneum, muscle and skin were sutured by a silk. The other side ovary was ectomized by the same procedure. Sham operation was performed for a control group, which opened peritoneum but sutured without taking ovary out. A period of recovery was 1 week.
Test animals were classified into three groups; a normal group (non-ovari-ectomized group), a control group 1 (sham-operated group) and an ovari-ectomized group. […]
Dpd concentration in blood plasma obtained above was measured by competitive enzyme immunoassay using a Dpd concentration measuring kit (Pyrilinks-D, Quidel Corporation, USA) in which an anti-Dpd antibody was included. […] After reaction was finished, OD450 was measured. Then, Dpd concentration was calculated by using a calibration curve made to explain the relation between Dpd content and optical density (FIG. 11).
Based on the result of the above Example <5-4>, changes of Dpd concentration after administering each sample for 9 weeks were quantified by the below formula. […]
In order to confim the effects of the extract of Sophorae Fructus of the present invention, Dpd concentrations in groups administered with the extract of Sophorae Fructus of the present invention were calculated by comparing with Dpd concentration in a control group 2 (ovari-ectomized) in which osteoporosis was progressed much. […]

TGF-beta = TGF-beta secretion in osteoblasts, ELISA; assay type: cell-based, human; conditions: MG-63 cells
Experimental: as §1

For `C[C@]12CC[C@@H]3c4ccc(O)cc4CC[C@H]3[C@@H]1CC[C@@H]2O` [E, 17-beta estradiol], the “Weight gaining rate (g/day)” value ([1]; ovari-ectomized SD rats, 12 to 22 weeks old, 0.556 g/kg/day oral, E group 1 g/kg/day intraperitoneal, mean ± SD, * significant p < 0.05) was 1.0095 ± 0.1* g/day, the “Weight (g): Final weight (22 weeks old)” value ([1]; ovari-ectomized SD rats, after 9 weeks administration (0.556 g/kg/day oral; E group 1 g/kg/day intraperitoneal), mean ± SD) was 302.4 ± 29.885 g and the “weight gaining after removal of ovary” value ([1]; ovari-ectomized rats, versus rapid weight gaining in control group 2) was “slow”. For the same molecule, the “IGF-1 concentration (ELISA), comparison of groups” value (IGF-1) was “highest IFG-1 concentration”, the “calcium concentration in blood plasma, 10 week” value ([2]; after 9 weeks administration (0.556 g/kg/day oral; estradiol 1 g/kg/day intraperitoneal), mean ± SD) was 17.96 ± 1.334 and the “course of calcium concentration in blood plasma after start of administration” value ([2]; from the first week on) was “rapid increase of calcium concentration”. For the same molecule, the “osteoblast proliferation effect (MTT, OD570)” value ([3]; 10^-4 to 10^-12%) was “cell proliferation depended on its concentration”, the “osteoblast proliferation at low concentration versus high concentration” value ([3]; low concentration 10^-10% (estradiol 10^-10% and 10^-12%)) was “proliferation decreased” and the “Dpd concentration in blood plasma after 9 weeks of administration (10th week)” value (Dpd (deoxypyridinoline); 0.556 g/kg/day oral, E group 1 g/kg/day intraperitoneal) was “rapid drop of Dpd concentration”. For the same molecule, the “decrease rate of Dpd, regarding the amount of decreased Dpd of E group as 100%” value (Dpd (deoxypyridinoline); 9 weeks administration) was 100%, the “ΔDpd value (Dpd before administration versus after 9-week administration)” value (Dpd (deoxypyridinoline); negative = decrease of Dpd concentration) was “negative” and the “TGF-beta concentration (ELISA)” value (TGF-beta; 10^-4 to 10^-10%) was “evenly higher TGF-beta concentration”. The “TGF-beta concentration / secretion promoting activity (ELISA)” value (TGF-beta; minimum concentration 10^-12%) was “decreased to the similar level to that in a control group”.
